Like-named read-outs stand apart in the source and are kept apart here. *1 amine or outer side, *2 acyl side, *3 side chain or, on linkers, in order; H or OH if unused. Where a SMILES comes first, the peptide text is derived from it. Side-chain parts run from the residue outwards. [ ]: non-standard residue; d: D form. The star is where a group is joined. αMePhe(2-F) = C[C@](N)(Cc1ccccc1F)C(=O)O; γGlu = O=C(O)[C@H](CCC(=O)[*:2])N[*:1]; C14 diacid = O=C(O)CCCCCCCCCCCCC(=O)*; αMeY = C[C@](N)(Cc1ccc(O)cc1)C(=O)O; αMeL = CC(C)C[C@](C)(N)C(=O)O; Orn = NCCC[C@H](N)C(=O)O; AEEA = NCCOCCOCC(=O)O; Aib = CC(C)(N)C(=O)O

Type in all cases: cell-based
In one assay the target is hGLP-1R (Homo sapiens, UniProt P43220). The assay is described as follows: Functional cAMP formation (HTRF) in HEK-293 clonal cells expressing hGLP-1R, 0.1% bovine casein, without or with 1.0% human serum albumin. More on the design: expressed in transfected cells. Particulars: for Emax: percent of maximal response to GLP-1(7-36)NH2; for EC50: geometric mean. A digest of the protocol:
(§1)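 Cells were stimulated with peptide for 30 min at 37° C, then lysed in buffer carrying cAMP-d2 and anti-cAMP Eu3+-cryptate for a competitive HTRF read after at least 60 min at room temperature. The 665/620 nm ratio was converted to nM cAMP against a standard curve.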
For orientation: Changes in cAMP serve as a functional read-out for many G protein-coupled receptors.

The next assay concerns the target T1, hGIPR (Homo sapiens, UniProt P48546).
T1 construct: expressed in transfected cells
T1 sequence (P48546 22-466): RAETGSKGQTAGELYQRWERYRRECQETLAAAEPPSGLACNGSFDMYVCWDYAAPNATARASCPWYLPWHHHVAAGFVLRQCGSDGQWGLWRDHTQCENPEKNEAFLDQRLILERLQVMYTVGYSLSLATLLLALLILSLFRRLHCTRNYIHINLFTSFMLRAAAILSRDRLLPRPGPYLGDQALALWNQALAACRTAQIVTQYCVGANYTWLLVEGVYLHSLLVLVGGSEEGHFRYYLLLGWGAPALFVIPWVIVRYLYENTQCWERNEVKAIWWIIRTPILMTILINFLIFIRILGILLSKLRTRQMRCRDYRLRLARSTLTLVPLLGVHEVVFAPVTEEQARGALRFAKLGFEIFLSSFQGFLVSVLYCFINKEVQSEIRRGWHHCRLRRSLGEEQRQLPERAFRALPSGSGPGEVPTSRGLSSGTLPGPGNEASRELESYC
Put plainly: Functional cAMP formation (HTRF) in HEK-293 clonal cells expressing hGIPR, 0.1% bovine casein, without or with 1.0% human serum albumin. The following applies: for Emax: percent of maximal response to GIP(1-42)NH2; for EC50: cAMP, 0.1% bovine casein (no human serum albumin), geometric mean. In short, it runs like this:
as §1

The target of another assay is T2, hGCGR (Homo sapiens, UniProt P47871).
T2 construct: expressed in transfected cells
T2 sequence (P47871 26-477): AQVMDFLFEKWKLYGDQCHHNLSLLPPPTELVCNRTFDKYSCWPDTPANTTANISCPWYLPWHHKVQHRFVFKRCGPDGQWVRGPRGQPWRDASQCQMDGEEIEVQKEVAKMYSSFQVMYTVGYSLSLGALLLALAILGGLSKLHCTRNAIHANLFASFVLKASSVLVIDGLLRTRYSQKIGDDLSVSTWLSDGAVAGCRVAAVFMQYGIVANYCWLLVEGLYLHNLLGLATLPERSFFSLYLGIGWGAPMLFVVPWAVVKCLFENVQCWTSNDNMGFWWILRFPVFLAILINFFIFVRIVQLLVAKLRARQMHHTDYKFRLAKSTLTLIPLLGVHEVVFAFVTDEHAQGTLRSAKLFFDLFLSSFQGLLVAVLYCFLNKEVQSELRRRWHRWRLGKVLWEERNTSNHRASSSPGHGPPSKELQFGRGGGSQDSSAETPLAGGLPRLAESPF
The assay is described as follows: Functional cAMP formation (HTRF) in HEK-293 clonal cells expressing hGCGR, 0.1% bovine casein, without or with 1.0% human serum albumin. Particulars: 37° C. In short, it runs like this: as §1

Where [1] appears, read: cAMP, 37° C., 0.1% bovine casein (no human serum albumin), read-out: hGLP-1R EC50, nM (SEM, n).
Setting [2] is: 37° C., read-out: hGIPR EC50, nM (SEM, n).
The mark [3] stands for this setting: cAMP, 0.1% bovine casein (no human serum albumin), geometric mean, read-out: hGCGR EC50, nM (SEM, n).
Setting [4] is: HEK293, 0.1% bovine casein and 1.0% human serum albumin, 37° C., read-out: hGIPR Emax, % ± SEM.
Setting [5] is: 0.1% bovine casein and 1.0% human serum albumin, geometric mean, read-out: hGCGR EC50, nM (SEM, n).

Chain of hGLP-1R (P43220 24-463): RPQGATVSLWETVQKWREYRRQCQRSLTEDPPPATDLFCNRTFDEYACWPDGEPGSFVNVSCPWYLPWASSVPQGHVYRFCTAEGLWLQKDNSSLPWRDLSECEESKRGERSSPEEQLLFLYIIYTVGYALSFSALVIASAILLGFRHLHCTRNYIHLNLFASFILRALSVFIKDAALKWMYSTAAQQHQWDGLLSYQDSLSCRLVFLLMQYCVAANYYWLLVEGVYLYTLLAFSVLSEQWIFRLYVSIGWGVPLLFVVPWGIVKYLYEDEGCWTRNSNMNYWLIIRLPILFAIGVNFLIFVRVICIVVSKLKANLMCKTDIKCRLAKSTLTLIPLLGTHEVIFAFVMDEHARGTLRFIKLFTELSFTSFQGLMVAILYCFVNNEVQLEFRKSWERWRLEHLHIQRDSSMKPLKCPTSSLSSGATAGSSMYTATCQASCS

In the case of `CC[C@H](C)[C@H](NC(=O)[C@H](CC(C)C)NC(=O)[C@](C)(Cc1ccc(O)cc1)NC(=O)[C@@H](CCC(=O)O)NC(=O)[C@@H](NC(=O)[C@H](Cc1ccccc1)NC(=O)[C@H](CCC(=O)O)NC(=O)C(C)(C)NC(=O)[C@H](CCC(N)=O)NC(=O)[C@H](C)NC(=O)[C@H](CCCCNC(=O)COCCOCCNC(=O)CC[C@H](NC(=O)CCCCCCCCCOc1ccc(C(=O)O)cc1)C(=O)O)NC(=O)[C@H](CCCN)NC(=O)[C@H](CC(=O)O)NC(=O)[C@H](CC(C)C)NC(=O)[C@](C)(CC(C)C)NC(=O)[C@@H](NC(=O)C(C)(C)NC(=O)[C@H](Cc1ccc(O)cc1)NC(=O)[C@H](CC(=O)O)NC(=O)[C@H](CO)NC(=O)[C@@H](NC(=O)[C@](C)(Cc1ccccc1F)NC(=O)[C@@H](NC(=O)CNC(=O)[C@H](CCC(=O)O)NC(=O)C(C)(C)NC(=O)[C@@H](N)Cc1ccc(O)cc1)[C@@H](C)O)[C@@H](C)O)[C@@H](C)CC)[C@@H](C)CC)C(=O)N[C@@H](CCCCNC(=O)COCCOCCNC(=O)CC[C@H](NC(=O)CCCCCCCCCOc1ccc(C(=O)O)cc1)C(=O)O)C(=O)NCC(=O)NCC(=O)N1CCC[C@H]1C(=O)N[C@@H](CO)C(=O)N[C@@H](CO)C(=O)NCC(=O)N[C@@H](C)C(=O)N1CCC[C@H]1C(=O)N1CCC[C@H]1C(=O)N1CCC[C@H]1C(=O)N[C@@H](CO)C(N)=O` [Example 373], the Emax (commonly the greatest response seen or fitted, relative to the assay's reference) on hGLP-1R (HEK293, read-out: hGLP-1R Emax, % ± SEM, cAMP, 37° C., 0.1% bovine casein and 1.0% human serum albumin) is 112%; on hGIPR (HEK293, read-out: hGIPR Emax, % ± SEM, cAMP, 37° C., 0.1% bovine casein and 1.0% human serum albumin), 82.4%. In addition, the EC50 (commonly the concentration that produces a half-maximal response) is 0.329 nM at hGLP-1R (hGLP-1R EC50, nM (SEM, n), cAMP, 37° C., 0.1% bovine casein (no human serum albumin)); 0.0152 nM on hGIPR (hGIPR EC50, nM (SEM, n), 37° C.); > 9950 nM at hGCGR (hGCGR EC50, nM (SEM, n), cAMP, 0.1% bovine casein (no human serum albumin), geometric mean); > 9950 nM at hGCGR (hGCGR EC50, nM (SEM, n), cAMP, 0.1% bovine casein and 1.0% human serum albumin, geometric mean (SEM, n)).

Take `CC[C@H](C)[C@H](NC(=O)[C@H](CCCN)NC(=O)[C@H](CC(=O)O)NC(=O)[C@H](CC(C)C)NC(=O)[C@](C)(CC(C)C)NC(=O)[C@@H](NC(=O)C(C)(C)NC(=O)[C@H](Cc1ccc(O)cc1)NC(=O)[C@H](CC(=O)O)NC(=O)[C@H](CO)NC(=O)[C@@H](NC(=O)[C@](C)(Cc1ccccc1F)NC(=O)[C@@H](NC(=O)CNC(=O)[C@H](CCC(=O)O)NC(=O)C(C)(C)NC(=O)[C@@H](N)Cc1ccc(O)cc1)[C@@H](C)O)[C@@H](C)O)[C@@H](C)CC)C(=O)N[C@@H](C)C(=O)N[C@@H](CCC(N)=O)C(=O)NC(C)(C)C(=O)N[C@@H](CCCCNC(=O)COCCOCCNC(=O)CC[C@H](NC(=O)CCCCCCCCCCCCC(=O)O)C(=O)O)C(=O)N[C@@H](Cc1ccccc1)C(=O)N[C@H](C(=O)N[C@H](CCC(=O)O)C(=O)N[C@@](C)(Cc1ccc(O)cc1)C(=O)N[C@@H](CC(C)C)C(=O)N[C@H](C(=O)N[C@@H](CCCCNC(=O)COCCOCCNC(=O)CC[C@H](NC(=O)CCCCCCCCCCCCC(=O)O)C(=O)O)C(=O)NCC(=O)NCC(=O)N1CCC[C@H]1C(=O)N[C@@H](CO)C(=O)N[C@@H](CO)C(=O)NCC(=O)N[C@@H](C)C(=O)N1CCC[C@H]1C(=O)N1CCC[C@H]1C(=O)N1CCC[C@H]1C(=O)N[C@@H](CO)C(N)=O)[C@@H](C)CC)[C@@H](C)CC` [Example 370] (H-Y[Aib]EGT[αMePhe(2-F)]TSDY[Aib]I[αMeL]LD[Orn]IAQ[Aib]K([AEEA-γGlu-C14 diacid])FI[dE][αMeY]LIK([AEEA-γGlu-C14 diacid])GGPSSGAPPPS-NH2): the Emax on hGLP-1R (HEK293, cAMP, 37° C., 0.1% bovine casein, arithmetic mean, read-out: hGLP-1R Emax, % ± SEM) was found to be 112%; at hGIPR (HEK293, cAMP, 37° C., 0.1% bovine casein, arithmetic mean, read-out: hGIPR Emax, % ± SEM) it was 105%. In addition, the EC50 at hGLP-1R (setting [1]) is 0.402 nM; at hGIPR (setting [2]) it was 0.0282 nM; at hGCGR (setting [3]), > 9950 nM.

Turning to `CC[C@H](C)[C@H](NC(=O)[C@H](CC(C)C)NC(=O)[C@](C)(Cc1ccc(O)cc1)NC(=O)[C@@H](CCC(=O)O)NC(=O)[C@@H](NC(=O)[C@H](Cc1ccccc1)NC(=O)[C@H](CCCCNC(=O)COCCOCCNC(=O)COCCOCCNC(=O)CC[C@H](NC(=O)CCCCCCCCCCCCC(=O)O)C(=O)O)NC(=O)C(C)(C)NC(=O)[C@H](CCC(N)=O)NC(=O)[C@H](C)NC(=O)[C@H](CCCCNC(=O)COCCOCCNC(=O)COCCOCCNC(=O)CC[C@H](NC(=O)CCCCCCCCCCCCC(=O)O)C(=O)O)NC(=O)[C@H](CCCN)NC(=O)[C@H](CC(=O)O)NC(=O)[C@H](CC(C)C)NC(=O)[C@](C)(CC(C)C)NC(=O)[C@@H](NC(=O)[C@H](CO)NC(=O)[C@H](Cc1ccc2ccccc2c1)NC(=O)[C@H](CC(=O)O)NC(=O)[C@H](CO)NC(=O)[C@@H](NC(=O)[C@](C)(Cc1ccccc1F)NC(=O)[C@@H](NC(=O)CNC(=O)[C@H](CCC(=O)O)NC(=O)C(C)(C)NC(=O)[C@@H](N)Cc1ccc(O)cc1)[C@@H](C)O)[C@@H](C)O)[C@@H](C)CC)[C@@H](C)CC)C(=O)N[C@@H](CCC(=O)O)C(=O)NCC(=O)NCC(=O)N1CCC[C@H]1C(=O)N[C@@H](CO)C(=O)N[C@@H](CO)C(=O)NCC(=O)N[C@@H](C)C(=O)N1CCC[C@H]1C(=O)N1CCC[C@H]1C(=O)N1CCC[C@H]1C(=O)N[C@@H](CO)C(N)=O` [Example 249], the EC50 was 51.6 nM on hGLP-1R (0.1% bovine casein and 1.0% human serum albumin, 37° C., read-out: hGLP-1R EC50, nM (SEM, n)); 0.3 nM on hGLP-1R (setting [1]); 0.0201 nM at hGIPR (setting [2]); > 9950 nM at hGCGR (setting [5]); > 9950 nM on hGCGR (setting [3]). For the same compound, the Emax at hGIPR (setting [4]) came out at 88.9%.

In the case of `CC[C@H](C)[C@H](NC(=O)[C@H](CC(C)C)NC(=O)[C@](C)(Cc1ccc(O)cc1)NC(=O)[C@@H](CCC(=O)O)NC(=O)[C@@H](NC(=O)[C@H](Cc1ccccc1)NC(=O)[C@H](CCC(=O)O)NC(=O)C(C)(C)NC(=O)[C@H](CCC(N)=O)NC(=O)[C@H](C)NC(=O)[C@H](CCCCNC(=O)COCCOCCNC(=O)COCCOCCNC(=O)CCCCCCCCCCCCC(=O)O)NC(=O)[C@H](CCCN)NC(=O)[C@H](CC(=O)O)NC(=O)[C@H](CC(C)C)NC(=O)[C@](C)(CC(C)C)NC(=O)[C@@H](NC(=O)[C@H](CO)NC(=O)[C@H](Cc1ccc(OC)cc1)NC(=O)[C@H](CC(=O)O)NC(=O)[C@H](CO)NC(=O)[C@@H](NC(=O)[C@](C)(Cc1ccccc1F)NC(=O)[C@@H](NC(=O)CNC(=O)[C@H](CCC(=O)O)NC(=O)C(C)(C)NC(=O)[C@@H](N)Cc1ccc(O)cc1)[C@@H](C)O)[C@@H](C)O)[C@@H](C)CC)[C@@H](C)CC)C(=O)N[C@@H](CCC(=O)O)C(=O)NCC(=O)NCC(=O)N1CCC[C@H]1C(=O)N[C@@H](CO)C(=O)N[C@@H](CO)C(=O)NCC(=O)N[C@@H](C)C(=O)N1CCC[C@H]1C(=O)N1CCC[C@H]1C(=O)N1CCC[C@H]1C(=O)N[C@@H](CO)C(=O)N[C@@H](CCCCNC(=O)COCCOCCNC(=O)COCCOCCNC(=O)CCCCCCCCCCCCC(=O)O)C(N)=O` [Example 267] (H-Y[Aib]EGT[αMePhe(2-F)]TSDY(Me)SI[αMeL]LD[Orn]K([AEEA-AEEA-C14 diacid])AQ[Aib]EFI[dE][αMeY]LIEGGPSSGAPPPSK([AEEA-AEEA-C14 diacid])-NH2), the EC50 on hGLP-1R (setting [1]) is 0.271 nM; on hGIPR (setting [2]), 0.0162 nM; on hGCGR (setting [5]), > 9950 nM; on hGCGR (setting [3]) it was > 9950 nM. The Emax at hGIPR (setting [4]) was 88.1%.

For the origin of these results see US20230265151A1, “GIP/GLP1 CO-AGONIST COMPOUNDS” (priority 2020, published 2023).
